Assay [1] in a line: Free radical scavenger properties (reaction with DPPH). As to conditions: reaction with DPPH at 20° C.; determined graphically. As for the experimental part: a) Free radical scavenger properties The testing in this test, which allows conclusions on the antioxidative potential of a substance, was carried out according to Smith et al., Biochem, Pharmacol. 1987. 36, 1456. In this test, the reaction of the compounds according to the invention with the stable free radical 1,1-diphenyl-2-picrylhydrazyl (DPPH) is monitored optically at 20° C. The rate constant K and reaction orders n in Table 5 were determined graphically in the customary manner.
For orientation: The DPPH test is a chemical assay of radical scavenging.

Assay [2] concerns Arthus reaction (paw volume increase) in rats. Description: Reverse passive Arthus reaction. The class given is in vivo, rat (male Sprague-Dawley). As to the method:
b) Reverse passive Arthus reaction
Male Sprague-Dawley rats having a body weight between 100 and 120 g. which had been divided into groups of 8 animals in each case, were used as experimental animals. The animals received a subplantar injection in the left hind paw of 0.5 mg of immunoglobulin in 0.1 ml of a sodium chloride solution 1 hour after oral administration of the test substance. After 4 hours, the Arthus reaction was measured, the percentage change in the paw volume increase compared to that of the control group treated only with vehicle being used as a measuring parameter for the action.

The subject of assay [3] is LTB4 formation in human neutrophils. Put plainly: Influence on LTB4 formation in human neutrophils. The class given is cell-based. As to conditions: Neutrophil. As to the method: (§1) Moreover, the substances according to the invention were also characterized in cellular leukocyte systems in vitro as inhibitors of arachidonic acid metabolites. To detect the lipoxygenase metabolites, human neutrophils stimlated by calcium ionophore A 23 187 (70 mcmol/1) were incubated with ^14 C-arachidonic acid (81 mcmol/1) and the principal metabolites formed after 15 minutes at 37° C., such as 5-hydroxyeicosatetraenoic acid (5-HETE) and the more strongly proinflammatory leukotriene B4 (LTB4) were determined quantitatively (Tab. 6) with the aid of a radio monitor after separation by HPLC. The influence on the proinflammatory arachiconic acid metabolites thromboxane and LTB4 in cultures prepared from rat mast cells was determined in a corresponding manner (Tab. 7).

Assay [4] concerns 5-HETE formation in human neutrophils. Put plainly: Influence on 5-HETE formation in human neutrophils. The format is cell-based. As to conditions: Neutrophil. As for the experimental part: as §1
In the next assay the target is T1, lipoxygenase (Glycine max, UniProt P08170).
T1 construct: purchased Sigma, Deisenhofen, Germany L7127
T1 sequence (P08170 1-839): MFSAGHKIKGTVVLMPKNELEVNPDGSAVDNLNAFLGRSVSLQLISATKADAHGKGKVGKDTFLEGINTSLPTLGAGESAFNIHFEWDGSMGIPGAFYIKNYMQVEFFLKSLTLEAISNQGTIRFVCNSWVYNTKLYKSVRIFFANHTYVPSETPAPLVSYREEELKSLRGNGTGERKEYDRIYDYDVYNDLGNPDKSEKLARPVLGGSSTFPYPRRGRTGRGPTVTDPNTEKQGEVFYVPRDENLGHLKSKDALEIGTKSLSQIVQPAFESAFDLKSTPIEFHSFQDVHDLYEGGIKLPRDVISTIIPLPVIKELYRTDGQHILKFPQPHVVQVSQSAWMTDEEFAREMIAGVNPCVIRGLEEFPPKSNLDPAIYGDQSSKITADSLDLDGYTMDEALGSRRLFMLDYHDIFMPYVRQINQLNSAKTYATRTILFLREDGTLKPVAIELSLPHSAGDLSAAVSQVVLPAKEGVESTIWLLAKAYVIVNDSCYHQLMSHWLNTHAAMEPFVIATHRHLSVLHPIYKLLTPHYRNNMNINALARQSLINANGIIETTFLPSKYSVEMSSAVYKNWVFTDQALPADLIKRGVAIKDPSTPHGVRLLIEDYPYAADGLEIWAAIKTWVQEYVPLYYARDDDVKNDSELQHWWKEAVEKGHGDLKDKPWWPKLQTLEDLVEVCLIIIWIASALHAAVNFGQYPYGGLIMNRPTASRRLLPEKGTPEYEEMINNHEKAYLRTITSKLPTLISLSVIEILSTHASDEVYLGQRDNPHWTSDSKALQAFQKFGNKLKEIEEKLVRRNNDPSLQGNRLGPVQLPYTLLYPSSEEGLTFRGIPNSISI
Put plainly: Lipoxygenase (enzyme) inhibition in vitro. The class given is biochemical. As to the method:
(§2) The inhibitory action of the compounds according to the invention is measured on the in vitro arachidonic acid degradation catalyzed by cyclooxycenase and lipoxycenase with the aid of the test systems described in Weithmann and Alpermann, Arzneim.-Forsch. 1985, 35, 947: The cyclooxygenase-catalyzed synthesis of prostaglandins from arachidonic acid is measured in the microsomal cyclooxygenase system (fraction from sheep seminal vesicles, Paesel, Frankfurt, Germany). The coenzyme is adrenaline, whose conversion to adrenochrome is monitored by spectrophotometry at 492 nm. Cis-9-cis-12-linoleic acid is incubated with lipoxygenase (L7127, Sigma, Deisenhofen, Germany) in the lipoxygenase system in vitro and the formation of conjugated double bonds taking place during the oxygenation reaction is monitored optically at 234 nm.
The inhibitor actions, or the inhibitor concentrations necessary for a 50 % inhibition of enzyme activity (IC50 values), have been determined for the following examples according to the invention: […]

Assay [5] relates to Adjuvant arthritis (paw volume increase) in rats. Description: Adjuvant arthritis (method of Pearson), antiinflammatory action on the 5th day. The format is in vivo, rat (male, Wistar-Lewis strain). As to conditions: Rattus norvegicus, 120 h; for inhibition in vivo at 50 mg/kg: po, 50 mg/kg p.o. once daily, 1st to 5th day, vs untreated control, read-out: Adjuvant arthritis (% inhibition at 50 mg/kg orally); for ED50: adjuvant arthritis, oral, determined graphically from dose-response curve. As to the method:
The testing of the compounds of the formula I according to the invention for antiinflammatory action, influence on immunopathological processes, oxygen free radicaldeactivating properties and influence on arachidonic acid metabolism was carried out in the animal models and bioassays described in the following.
1. Adjuvant arthritis for influencing the antiinflammatory action (Table 2)
(§3) The investigations were carried out by the method of Pearson (Arthrit. Rheum. 1959, 2, 44). Male rats of a Wistar-Lewis strain having a body weight between 130 and 200 g were used as experimental animals. The compounds to be tested were administered orally (p. o.) once daily from the 1st to the 5th experimental day in doses of 50 mg per kg of body weight. The animals of one control group received only the vehicle. Each preparation group and the control group comprised 8 animals. The percentage reduction of the paw volume increase compared to that of the untreated control group was used as the criterion of action. The ED50 values were determined graphically from the dose-response curve.
(§4) 4-(3,5-Di-tert.-butyl-4-hydroxyphenyl)-2-methylthiazole i.e. the compound of the formula [drawing 26] according to US-A-4,535,165 mentioned at the beginning, was additionally included in this and the investigation below as a comparison preparation.

The test system of assay [6] is Adjuvant arthritis (Perper modification; paw volume) in rats. Description: Adjuvant arthritis (Perper modification), paw volume on the 21st day. The class given is in vivo, rat (male, Wistar-Lewis strain). As to conditions: Rattus norvegicus, po, 504 h, 50 mg/kg/day, 1st to 12th day. As for the experimental part: as §3, §4
a) Adjuvant arthritis (Perper modification)
The animals were only treated from the 1st to the 12th experimental day in the experimental arrangement described in item 1. After a treatment-free interval of 9 days, determination of the paw volume of the left and right hind paw was carried out on the 21st day (compare Table 3).

Assay [7] shares this test system. Described as above. The format is in vivo, rat (male, Wistar-Lewis strain). As to conditions: Rattus norvegicus, po, 504 h, 1st to 12th day; for inhibition in vivo at 5 mg/kg: 5 mg/kg/day; for inhibition in vivo at 10 mg/kg: 10 mg/kg/day.
The next assay concerns the target T2, cyclooxygenase (Ovis aries, UniProt P05979).
T2 construct: microsomal cyclooxygenase system (fraction from sheep seminal vesicles, Paesel, Frankfurt, Germany); purchased Paesel, Frankfurt, Germany; host or cells: sheep seminal vesicles (microsomal fraction)
T2 sequence (P05979 25-600): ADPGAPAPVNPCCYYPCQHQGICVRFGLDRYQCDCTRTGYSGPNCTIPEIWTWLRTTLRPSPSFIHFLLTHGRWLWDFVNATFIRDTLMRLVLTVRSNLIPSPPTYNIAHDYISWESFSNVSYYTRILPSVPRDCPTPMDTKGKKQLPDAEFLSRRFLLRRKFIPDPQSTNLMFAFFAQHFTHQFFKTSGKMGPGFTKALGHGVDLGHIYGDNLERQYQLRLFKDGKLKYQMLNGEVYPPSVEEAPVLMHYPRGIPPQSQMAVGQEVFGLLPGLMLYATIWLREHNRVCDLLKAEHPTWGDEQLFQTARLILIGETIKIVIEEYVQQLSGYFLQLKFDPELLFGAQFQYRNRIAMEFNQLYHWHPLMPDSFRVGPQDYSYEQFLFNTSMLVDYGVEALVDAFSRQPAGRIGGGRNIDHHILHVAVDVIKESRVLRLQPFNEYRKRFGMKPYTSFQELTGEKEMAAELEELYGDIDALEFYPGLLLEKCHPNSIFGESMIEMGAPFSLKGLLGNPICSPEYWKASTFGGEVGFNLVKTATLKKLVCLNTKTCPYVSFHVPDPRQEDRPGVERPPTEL
Put plainly: Cyclooxygenase (microsomes) inhibition in vitro. The format is biochemical, sheep. As for the experimental part: as §2
The inhibitor actions, or the inhibitor concentrations necessary for a 50 % inhibition of enzyme activity (IC50 values), have been determined for the following examples according to the invention:
Cyclooxygenase (microsomes)

Where [8] appears, read: read-out: % inhibition on the 21st day, Left paw.
[9] abbreviates: read-out: % inhibition on the 21st day, Right paw.

Like-named read-outs stand apart in the source and are kept apart here. A value given as a limit tells only on which side of the number the result lay.

Regarding `CC(C)(C)c1cc(-c2csc(CSCC(=O)O)n2)cc(C(C)(C)C)c1O` [Example 18], the reaction order n in [1] was determined as 1. The “% inhibition (Arthus reaction)” value in assay [2] (100 mg/kg orally) was 50%.

Consider `CC(C)(C)c1cc(-c2csc(CC(=O)O)n2)cc(C(C)(C)C)c1O` [Example 9], for which the activity at 0.1 µM worked out at 70 ± 12% in [3] (0.1 μM, n = 6, read-out: LTB4 formation, Residual activity (%)) and 91.5 ± 10% in [4] (0.1 μM, n = 6, read-out: 5-HETE formation, Residual activity (%)). Moreover, the activity at 1 µM was found to be 79 ± 11% in assay [3] (1 μM, n = 6, read-out: LTB4 formation, Residual activity (%)) and 80 ± 8% in [4] (1 μM, n = 6, read-out: 5-HETE formation, Residual activity (%)). Also, the activity at 10 µM in [3] (10 μM, n = 6, read-out: LTB4 formation, Residual activity (%)) came out at 73 ± 12%; in [4] (10 μM, n = 6, read-out: 5-HETE formation, Residual activity (%)), 75 ± 13%. The activity at 100 µM in assay [3] (100 μM, n = 9, read-out: LTB4 formation, Residual activity (%)) was found to be 20.5 ± 11%; in assay [4] (100 μM, n = 9, read-out: 5-HETE formation, Residual activity (%)), 21 ± 8%. In assay [1], this compound had a reaction order n of under 1.

Consider `COC(=O)C=Cc1nc(-c2cc(C(C)(C)C)c(O)c(C(C)(C)C)c2)cs1` [Example 12], for which, on lipoxygenase (at 50 μM), the inhibition at 50 µM is 73%. This compound also gave a reaction order n in [1] of 1.

As for `CC(C)(C)c1cc(-c2csc(C=NOCC(=O)O)n2)cc(C(C)(C)C)c1O` [Example 5], the results for the inhibition in vivo at 50 mg/kg in assay [5], in [6] (setting [8]) and in assay [6] (setting [9]) were 51%, 20% and 42%, respectively. In addition, the “% inhibition (Arthus reaction)” value in assay [2] (60 mg/kg orally) amounted to 38%.

For the compound `CC(C)(C)c1cc(-c2csc(CCC(=O)Nc3nn[nH]n3)n2)cc(C(C)(C)C)c1O` [Example 21], the inhibition in vivo at 50 mg/kg in [5] was 65%; in assay [6] (setting [8]), 42%; in assay [6] (setting [9]), 54%. The reaction order n in assay [1] is reported as 1. Besides, in [2] (50 mg/kg orally), the “% inhibition (Arthus reaction)” value is recorded as 48%.

Consider `CN(O)C(=O)CCc1nc(-c2cc(C(C)(C)C)c(O)c(C(C)(C)C)c2)cs1` [Example 19], for which, in assay [7] (setting [8]), the inhibition in vivo at 5 mg/kg came to 59% and the inhibition in vivo at 10 mg/kg is 72%. In assay [7] (setting [9]), the inhibition in vivo at 5 mg/kg was found to be 70% and the inhibition in vivo at 10 mg/kg was determined as 85%. Moreover, in [5], the ED50 is 2.5 mg/kg and the inhibition in vivo at 50 mg/kg is 75%. In addition, the reaction order n in [1] is listed as under 1. Also, the “% inhibition (Arthus reaction)” value in assay [2] (50 mg/kg orally) was determined as 45%.

`CCOC(=O)CCc1nc(-c2cc(C)c(O)c(C(C)(C)C)c2)cs1` [Example 16] had an IC50 against cyclooxygenase of 34 µM. In assay [1], the reaction order n is listed as under 1.

Compound `Cc1sc(CCC(=O)O)nc1-c1cc(C(C)(C)C)c(O)c(C(C)(C)C)c1` [Example 15] came in with an inhibition at 100 µM against lipoxygenase (at 100 μM) of 78%. The ED50 in assay [5] turned out to be 2.6 mg/kg. For the same compound, the inhibition in vivo at 50 mg/kg in assay [5] is 67%; in assay [6] (setting [8]), 39%; in [6] (setting [9]), 50%. In assay [1], this compound showed a reaction order n of under 1. In addition, in [2] (100 mg/kg orally), the “% inhibition (Arthus reaction)” value was found to be 47%.

As usually defined, the inhibition is how much of the control response was suppressed. A lower inhibition goes with little suppression. One may read the ED50 as the midpoint of the dose-response relation. By IC50 is commonly meant the point on the concentration scale where inhibition reaches its midpoint. Low values mean greater potency, high ones weaker potency.

Values taken from US5137897A, “2-substituted 4-(3-alkyl-5-tert.-butyl-4-hydroxyphenyl) thiazoles, processes for their preparation, pharmaceuticals containing them and their use” (Hoechst Aktiengesllschaft, priority 1989, dated 1992).
